Results on 8 compounds are retold here after patent publication US8455544B2, “Synthetic triterpenoids and methods of use in the treatment of disease” (Reata Pharmaecuticals, Inc., priority 2008, dated 2013).

Where two headings read alike, the source gives them in different places. Where only a bound is given, the exact number is not on record here.

The conditions of data set [1]: cynomolgus monkey, in vivo, po, 4.1 mg/kg.
Data set [2] deals with IFNγ-induced NO production in RAW264.7 macrophages. Nature of the data set: Suppression of IFNγ-induced NO production (Griess reagent system). The format is cell-based. To be noted: Mus musculus; RAW264.7, pre-treated 2 hours, then 20 ng/ml IFNγ for 24 hours. Background: Nitrite, measured by Griess reagent, commonly stands in for NO production.
The subject of data set [3] is RAW264.7 macrophages. Briefly: Cell viability, WST-1 reagent. To be noted: Mus musculus, RAW264.7 (20 ng/ml IFNγ). The class given is cell-based.
Data set [4] deals with NQO1 in Hepa1c1c7 murine hepatoma cells. The note with it: concentration required to induce a two-fold increase in expression of NQO1, Hepa1c1c7 cells; cited from earlier work.
On the set-up of data set [5]: unit not given here. The note with it: six-month, cited from earlier work.

As for `COC(=O)[C@]12CCC(C)(C)C[C@H]1[C@H]1C(=O)C=C3[C@@]4(C)C=C(C#N)C(=O)C(C)(C)[C@@H]4CC[C@@]3(C)[C@]1(C)CC2` [Form B], in data set [1], the “Bioavailability compared with Form A” value is given as “higher”.
By IC50 is commonly meant the concentration needed to halve the response being measured. Regarding `CC1(C)CC[C@]2(C(=O)O)CC[C@]3(C)[C@H](C(=O)C=C4[C@@]5(C)C=C(C#N)C(=O)C(C)(C)[C@@H]5CC[C@]43C)[C@@H]2C1` [RTA 401, 2-cyano-3,12-dioxooleane-1,9(11)-dien-28-oic acid], the figures for the IC50 in data set [2] and in data set [3] were ~10 nM and > 200 nM, respectively. Besides, in data set [4], the “NQO1 CD” value was 2.3 nM.
With `CC1(C)CC[C@]2(C(=O)n3ccnc3)CC[C@]3(C)[C@H](C(=O)C=C4[C@@]5(C)C=C(C#N)C(=O)C(C)(C)[C@@H]5CC[C@]43C)[C@@H]2C1` [RTA 403], the IC50 is ~0.6 nM in data set [2] and 100 nM in data set [3]. The “NQO1 CD” value in data set [4] was 3.3 nM.
Take `CC1(C)CC[C@]2(C(=O)NCC(F)(F)F)CC[C@]3(C)[C@H](C(=O)C=C4[C@@]5(C)C=C(C#N)C(=O)C(C)(C)[C@@H]5CC[C@]43C)[C@@H]2C1` [RTA 404]: the results for the half-maximal inhibitory concentration (IC50) in data set [2] and in data set [3] were 5.8 nM and 100 nM, respectively.
On the same counts, the results for `CCNC(=O)[C@]12CCC(C)(C)C[C@H]1[C@H]1C(=O)C=C3[C@@]4(C)C=C(C#N)C(=O)C(C)(C)[C@@H]4CC[C@@]3(C)[C@]1(C)CC2` [RTA 405] are 6 nM and ~200 nM.
Consider `N[C@@H](CC(=O)N1CCn2c(nnc2C(F)(F)F)C1)Cc1cc(F)c(F)cc1F` [Sitagliptin], for which the “Change (Hemoglobin A1c)” value in data set [5] (+/− metformin with A1c ≧ 7.5, mean A1c 8.9, duration of DM 4.4 years) is recorded as −0.7; in data set [5] (+/− placebo with A1c ≧ 7.0, mean A1c 8.0, duration of DM 4.3 years) it was −0.8; in data set [5] (pioglitazone +/− sitagliptin, A1c ≧ 7.0, mean A1c 8.1, duration of DM 6.1 years), −0.7.
With `CC1(C)CC[C@]2(C#N)CC[C@]3(C)[C@H](C(=O)C=C4[C@@]5(C)C=C(C#N)C(=O)C(C)(C)[C@@H]5CC[C@]43C)[C@@H]2C1` [TP-225], the figures for the IC50 in data set [2] and in data set [3] were ~0.4 nM and 75 nM, respectively. Besides, in data set [4], the “NQO1 CD” value is 0.28 nM.
For Pramlintide acetate, the “Change (Hemoglobin A1c)” value in data set [5] (+/− insulin, mean A1c 9.1, duration of DM 13 years) is listed as −0.4.
